ChEMBL document CHEMBL1141739, “Donnaienin, a New Acetogenin Bearing a Hydroxylated Tetrahydrofuran Ring” (J Nat Prod, 1998)
Values after ≈ are worked out from the molar mass of the structure shown.

Experiments:
Format in all cases: functional, cell-based
KB = assay: Cytotoxicity against human KB cells after 5 days by MTT method; conditions: 120 h
HCT-8 = assay: Cytotoxicity against human HCT8 cells after 5 days by MTT method; conditions: HCT-8, 120 h
[1] = Cytotoxicity against human Bel cells after 5 days by MTT method; conditions: 120 h

For CCCCCCCCCCCCCC[C@H](O)[C@@H]1C[C@@H](O)[C@@H]([C@@H](O)CC[C@@H](O)CCCCC[C@@H](O)CC2=C[C@H](C)OC2=O)O1 [DONNAIENIN], the IC50 (KB) was > 10 µg/mL, the IC50 (HCT-8) was > 10 µg/mL and the IC50 [1] was 6.7 µg/mL (≈ 10.9 µM).
